Laboratory results reported in patent US7429582B2, “Dihydro[1,4]oxazino[2,3,4-hi]indazole derivatives as 5-hydroxytryptamine-6 ligands and use thereof in the treatment of attention deficit disorders” (Wyeth, priority 2006, dated 2008).
pKi: −log10 of the molar value. Structures can show the parent of a compound that is named as a salt.

Biological target: T1, human cloned 5-HT6 receptors (Homo sapiens, UniProt P50406)
T1 construct: expressed in transfected cells; host or cells: Hela cells
Settings: [3H]-LSD 3.0 nM, 120 minutes at room temperature, Hela cell membranes; read-out: 5-HT6 Binding Ki

T1 sequence (P50406 whole entry): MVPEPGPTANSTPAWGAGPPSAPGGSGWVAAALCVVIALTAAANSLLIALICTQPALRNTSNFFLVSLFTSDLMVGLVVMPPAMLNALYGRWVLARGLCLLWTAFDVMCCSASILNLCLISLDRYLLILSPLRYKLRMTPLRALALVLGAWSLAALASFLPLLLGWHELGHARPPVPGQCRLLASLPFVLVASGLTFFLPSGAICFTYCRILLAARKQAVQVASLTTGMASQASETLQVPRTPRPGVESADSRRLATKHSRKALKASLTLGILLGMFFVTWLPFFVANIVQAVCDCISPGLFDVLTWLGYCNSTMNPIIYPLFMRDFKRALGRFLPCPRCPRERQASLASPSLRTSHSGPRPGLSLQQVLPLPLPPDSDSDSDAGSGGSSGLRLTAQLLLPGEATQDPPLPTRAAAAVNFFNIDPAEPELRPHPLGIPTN

pKi	Compound
8.80	CN(C)CC1Cn2nc(S(=O)(=O)c3cccc4ccccc34)c3cccc(c32)O1 (stereo not drawn) [Example 6, N,N-dimethyl-1-[6-(1-naphthylsulfonyl)-2,3-dihydro[1,4]oxazino[2,3,4-hi]indazol-2-yl]methanamine Hydrochloride]
6.80	O=S(=O)(c1cccc2ccccc12)c1nn2c3c(cccc13)OC(CN1CCCCC1)C2 (stereo not drawn) [Example 8, 6-(1-Naphthylsulfonyl)-2-(piperidin-1-1ylmethyl)-2,3-dihydro[1,4]oxazino[2,3,4-hi]indazole Hydrochloride]

Compound	pKi
O=S(=O)(c1cccc2ccccc12)c1nn2c3c(cccc13)OC(CN1CCCC1)C2 (stereo not drawn) [Example 7, 6-(1-Naphthylsulfonyl)-2-(Pyrrolidin-1-1ylmethyl)-2,3-dihydro[1,4]oxazino[2,3,4-hi]indazole Hydrochloride]	8.52
